Where “and” joins values, the source holds several entries; their conditions need not be identical. Identical values can stand only once.
How the values were obtained:
[1] = biological target: T1, human TRPM8 receptor (Homo sapiens, UniProt Q7Z2W7); test: Assay on TRPM8 modulators: Ca2+ signal (Fluo-4) in HEK293 cells stably transfected with human TRPM8; type: cell-based; parameters: Relative TRPM8 activation (%): concentration or dose not given beside the values; conditions: for EC50: HEK293-TRPM8 cells, Fluo-4, read-out: Activity in vitro assay (EC50)
T1 construct: expressed in transfected cells
Text: The starting point for cloning the human TRPM8 receptor is an LnCaP cDNA bank. This is commercially available (e.g. BioChain, Hayward, USA) or can be produced from the androgene-sensitive human prostate adenocarcinoma cell line LnCaP (e.g. ATCC, CRL1740 or ECACC, 891 1021 1) using standard kits.
The coding TRPM8 sequence (see e.g. http://www. ncbi.nlm.nih.gov/entrez/viewer.fcgi?db=nuccore&id=109689694) can be PCR amplified and cloned using standard methods. The human TRPM8 gene isolated in this way was used to produce the plasmid plnd_M8. Alternatively, the TRPM8 gene can also be produced synthetically.
As a test cell system, a stably transfected HEK293 cell line was produced with human TRPM8 DNA. Preference is given to HEK293, which offers the possibility of inducing TRPM8 expression with tetracycline via the introduced plasmid.
A test similar to the one already described in the literature by Behrendt H. J. et al., Br. J. Pharmacol. 141, 2004, 737-745, is performed. The agonisation or antagonisation of the receptor can be quantified by means of a Cab-sensitive dye (e.g. FURA, Fluo-4 etc.). Agonists alone cause an increase in the Ca^2+ signal; antagonists cause a reduction in the Ca^2+ signal in the presence of e.g. menthol (in each case detected via the dye Fluo-4, which has different fluorescence properties due to Ca^2+ ions).
First, a fresh culture of transformed HEK cells is prepared in cell culture flasks in a manner known per se. The HEK293-TRPM8 test cells are detached from the cell culture flasks using trypsin and 40,000 cells/well are seeded with 100 μl medium in 96-hole plates (Greiner #655948 poly-D-lysine-coated). Tetracycline is added to the growth medium to induce receptor TRPM8 (DMEM/HG, 10% FCS tetracycline-free, 4 mM L-glutamine, 15 μg/ml blasticidin, 100 μg/ml hygromycin B, 1 μg/ml tetracycline).
The following day, the cells are loaded with Fluo-4AM dye and the test is performed. The procedure is as follows: Addition of 100 μl/well staining solution Ca-4 Kit (RB 141, Molecular Devices) to each 100 μl medium (DMEM/HG, 10% FCS tetracycline-free, 4 mM L-glutamine, 15 μg/ml blasticidin, 100 μg/ml hygromycin B, 1 μg/ml tetracycline).
Incubation in incubator, 30 minutes/37° C./5% CO2, 30 minutes/RT.
Preparation of the test substances (different concentrations in 200 μl HBSS buffer), as well as positive controls (different concentrations of menthol, icilin or lonomycin in 200 μl HBSS buffer) and negative controls (only 200 μl HBSS buffer) addition of the test substances in amounts of 50 μl/well and measurement of the fluorescence change (e.g. in the assay device FLIPR, Molecular Devices or NovoStar, BMG) at 485 nm excitation, 520 nm emission, and evaluation of the potency of the different substances/concentrations and determination of the EC50 values.
The test substances are used in triplicates in concentrations of 0.1-200 μM in the assay. Normally, the compounds are kept ready in DMSO solutions and diluted down to a maximum DMSO concentration of 2% for the assay.
With the aid of the assay described, the activity of the active substances is determined in relation to activation of the TRPM8 channel. This is done in a concentration-dependent manner. As a standard, 6 to 10 concentrations are measured for each active substance. From the determined activity values, the EC50 value can be determined as the inflection point of the sigmoidal curve using a mathematical method (4-parameter or 5-parameter logistic curve fitting). These are standard methods of biochemistry that are quite familiar to the skilled person.

[2] = tested on: oral cavity; test: Sensory tasting of cooling intensity by trained panellists; type: in vivo, human; conditions: 5 ppm in 5% sugar solution, tasted 40 seconds, rated after one minute, scale 1 (very weak) to 9 (very strong)
Protocol: In order to quantify the cooling effect, comparative tests are carried out using menthan-3-carboxylic acid-N-ethylamide as a reference. For these comparative tests, the skilled person replaces the compound or compounds to be used according to the invention with menthan-3-carboxylic acid-N-ethylamide (also referred to as WS-3). Then the intensities of the cooling effects of the respective compounds or active substances are sensory evaluated by trained panellists (n=10 to 11) as described below and compared with each other.
The investigation of the cooling intensity was carried out as follows: Test solutions containing 5 ppm of the compounds of the invention were each tasted in a 5% sugar solution as well as a corresponding solution containing 30 ppm of the reference substance WS-3. […] The corresponding test solutions were tasted by the panellists for a time of exactly 40 seconds, rinsing the entire oral cavity with the corresponding test solution and then spitting out the sample or reference solution. Following the tasting, the test persons rated the respective cooling intensity after one minute according to a scale from 1 (very weak) to 9 (very strong).

T1 sequence (Q7Z2W7 whole entry): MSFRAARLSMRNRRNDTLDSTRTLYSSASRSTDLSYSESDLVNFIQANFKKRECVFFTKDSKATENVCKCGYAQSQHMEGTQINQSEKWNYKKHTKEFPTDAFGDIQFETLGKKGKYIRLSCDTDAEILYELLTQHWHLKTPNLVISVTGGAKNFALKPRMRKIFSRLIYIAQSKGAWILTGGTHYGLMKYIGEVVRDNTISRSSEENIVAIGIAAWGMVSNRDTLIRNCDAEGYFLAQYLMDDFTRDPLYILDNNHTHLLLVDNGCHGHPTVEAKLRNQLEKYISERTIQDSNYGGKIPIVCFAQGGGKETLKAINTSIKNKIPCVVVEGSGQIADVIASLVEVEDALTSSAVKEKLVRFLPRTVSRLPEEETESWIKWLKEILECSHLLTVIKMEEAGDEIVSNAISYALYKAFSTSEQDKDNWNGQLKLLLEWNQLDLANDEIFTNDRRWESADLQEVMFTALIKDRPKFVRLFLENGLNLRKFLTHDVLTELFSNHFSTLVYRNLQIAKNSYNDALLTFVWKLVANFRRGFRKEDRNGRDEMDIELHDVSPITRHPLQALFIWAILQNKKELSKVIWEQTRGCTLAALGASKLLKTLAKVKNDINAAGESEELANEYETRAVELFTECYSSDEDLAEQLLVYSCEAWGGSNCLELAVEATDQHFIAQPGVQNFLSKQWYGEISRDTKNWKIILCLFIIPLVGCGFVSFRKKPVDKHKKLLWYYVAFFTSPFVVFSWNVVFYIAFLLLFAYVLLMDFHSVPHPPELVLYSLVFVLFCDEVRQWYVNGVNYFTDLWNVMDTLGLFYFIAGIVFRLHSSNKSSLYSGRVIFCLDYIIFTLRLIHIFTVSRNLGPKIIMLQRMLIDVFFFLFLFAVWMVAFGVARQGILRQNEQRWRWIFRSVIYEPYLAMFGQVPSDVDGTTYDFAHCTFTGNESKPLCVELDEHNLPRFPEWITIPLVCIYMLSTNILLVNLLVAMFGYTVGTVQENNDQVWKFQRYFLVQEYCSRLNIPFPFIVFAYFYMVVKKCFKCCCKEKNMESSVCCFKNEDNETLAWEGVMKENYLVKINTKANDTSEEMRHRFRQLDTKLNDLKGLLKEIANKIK

Structure (SMILES) | EC50 [1] | also measured
Cc1ccc(N2CCC(C(=O)NCc3cccc4c3OCO4)CC2)nc1 [Compound 5 a] | – | Relative TRPM8 activation (%) [1]: 2.4%
CCCC1CCN(c2cc(CNCc3cccc4c3OCO4)ccn2)CC1 [Compound 18 a] | – | Relative TRPM8 activation (%) [1]: −0.8%
CCN(Cc1ccnc(N2CCC(C)CC2)c1)Cc1cccc2c1OCO2 [Compound 19 a] | – | Relative TRPM8 activation (%) [1]: 3.4%
c1cc(CNCc2ccnc(-n3cccc3)c2)c2c(c1)OCO2 [Compound 22 a] | – | Relative TRPM8 activation (%) [1]: 3%
c1ccc(-c2cccc(CNCc3cccc4c3OCO4)c2)nc1 [Compound 22 c] | – | Relative TRPM8 activation (%) [1]: 3.6%
c1ccc(-c2cc(CNCc3cccc4c3OCO4)co2)cc1 [Compound 31 a] | – | Relative TRPM8 activation (%) [1]: 0%
c1cc(CNCc2cc3ccccc3o2)c2c(c1)OCO2 [Compound 32 a] | – | Relative TRPM8 activation (%) [1]: 1.3%
c1ccc(-c2cc(CNCc3cccc4c3OCO4)cs2)cc1 [Compound 43 a] | – | Relative TRPM8 activation (%) [1]: 0%
O=C(NCc1cccc2c1OCO2)c1ccnc(N2CCCCC2)c1 [Compound 51 a] | – | Relative TRPM8 activation (%) [1]: 0%
COc1ccc(C(C)NCc2ccnc(N3CCCCC3)c2)cc1 (centres unmarked) [Compound 85] | – | Cooling intensity [2]: 2.1
COc1ccc(CNCc2ccnc(N3CCCCC3)c2)cc1 [Compound 87] | 6.95 nM | –
c1cc(CNCc2ccnc(N3CCCCC3)c2)c2c(c1)OCO2 [Example 1] | 115 nM | –
c1cc(CNCc2ccnc(N3CCOCC3)c2)c2c(c1)OCO2 [Example 2] | 13000 nM | –
CC(NCc1cccc2c1OCO2)c1ccnc(N2CCCCC2)c1 (centres unmarked) [Example 8] | 150 nM | –
CC(C)C(NCc1cccc2c1OCO2)c1ccnc(N2CCCCC2)c1 (centres unmarked) [Example 11] | 8350 nM | –
CC1CCN(c2cc(CNCc3cccc4c3OCO4)ccn2)CC1 [Example 12] | 2010 nM | –
CC1CCCN(c2cc(CNCc3cccc4c3OCO4)ccn2)C1 (centres unmarked) [Example 13] | 600 nM | –
CC1CCCCN1c1cc(CNCc2cccc3c2OCO3)ccn1 (centres unmarked) [Example 14] | 330 nM | –

Structure (SMILES) | EC50 [1] | also measured
CC1(C)CCN(c2cc(CNCc3cccc4c3OCO4)ccn2)CC1 [Example 15] | 2630 nM | –
CC1CC(C)CN(c2cc(CNCc3cccc4c3OCO4)ccn2)C1 (centres unmarked) [Example 16] | 2530 nM | –
CC1(C)CCCN(c2cc(CNCc3cccc4c3OCO4)ccn2)C1 [Example 17] | 720 nM | –
CCC1CCCN(c2cc(CNCc3cccc4c3OCO4)ccn2)C1 (centres unmarked) [Example 18] | 2010 nM | –
c1cc(CNCc2ccnc(N3CCSCC3)c2)c2c(c1)OCO2 [Example 22] | 1190 nM | –
COc1cccc(CNCc2ccnc(N3CCCCC3)c2)c1OC [Example 23] | 760 nM | –
CCOc1cccc(CNCc2ccnc(N3CCCCC3)c2)c1OC [Example 24] | 1110 nM | –
CCOc1cccc(CNCc2ccnc(N3CCCCC3)c2)c1OCC [Example 25] | 5860 nM | –
COc1ccc(CNCc2ccnc(N3CCCCC3)c2)cc1 [Example 27] | 100 nM and ≤ 1000 nM | –
CSc1cc(CNCc2cccc3c2OCO3)ccn1 [Example 29] | 6500 nM | –
c1cc(CCNCCc2ccnc(N3CCCCC3)c2)c2c(c1)OCO2 [Example 34] | 800 nM | –
c1ccc(CNCc2ccnc(N3CCCCC3)c2)cc1 [Example 39] | 60 nM | –
Cc1ccc(CNCc2ccnc(N3CCCCC3)c2)cc1 [Example 41] | 150 nM | –
COc1cccc(CNCc2ccnc(N3CCCCC3)c2)c1 [Example 49] | 600 nM | –
COc1ccc(CNCc2ccnc(N3CCSCC3)c2)cc1 [Example 58] | 15800 nM | –
COc1ccc(CNCc2cccc(N3CCCC3)c2)cc1 [Example 64] | 1770 nM | –
CCNC(=O)[C@@H]1C[C@H](C)CC[C@H]1C(C)C [WS-3, L-menthanecarboxylic acid-N-ethylamide, reference compound] | 1720 nM | –
